Earlier results in patent publication US11154558B2, “Prevention of atherosclerotic events with direct factor Xa inhibitors” (Adams Pharmaceuticals LLC, priority 2016, dated 2021).
Where two headings read alike, the source gives them in different places.

Assays:
hERG = hERG (Homo sapiens, UniProt Q12809)
[1] = human, in vivo
[2] = human, in vivo; remark: listed apart in the source
[3] = usual dose about 15 mg to about 20 mg per day
[4] = test system: atherosclerotic plaques in ApoE^−/−mice
[5] = ApoE−/− mice treated with rivaroxaban

Sequence of hERG (Q12809 whole entry): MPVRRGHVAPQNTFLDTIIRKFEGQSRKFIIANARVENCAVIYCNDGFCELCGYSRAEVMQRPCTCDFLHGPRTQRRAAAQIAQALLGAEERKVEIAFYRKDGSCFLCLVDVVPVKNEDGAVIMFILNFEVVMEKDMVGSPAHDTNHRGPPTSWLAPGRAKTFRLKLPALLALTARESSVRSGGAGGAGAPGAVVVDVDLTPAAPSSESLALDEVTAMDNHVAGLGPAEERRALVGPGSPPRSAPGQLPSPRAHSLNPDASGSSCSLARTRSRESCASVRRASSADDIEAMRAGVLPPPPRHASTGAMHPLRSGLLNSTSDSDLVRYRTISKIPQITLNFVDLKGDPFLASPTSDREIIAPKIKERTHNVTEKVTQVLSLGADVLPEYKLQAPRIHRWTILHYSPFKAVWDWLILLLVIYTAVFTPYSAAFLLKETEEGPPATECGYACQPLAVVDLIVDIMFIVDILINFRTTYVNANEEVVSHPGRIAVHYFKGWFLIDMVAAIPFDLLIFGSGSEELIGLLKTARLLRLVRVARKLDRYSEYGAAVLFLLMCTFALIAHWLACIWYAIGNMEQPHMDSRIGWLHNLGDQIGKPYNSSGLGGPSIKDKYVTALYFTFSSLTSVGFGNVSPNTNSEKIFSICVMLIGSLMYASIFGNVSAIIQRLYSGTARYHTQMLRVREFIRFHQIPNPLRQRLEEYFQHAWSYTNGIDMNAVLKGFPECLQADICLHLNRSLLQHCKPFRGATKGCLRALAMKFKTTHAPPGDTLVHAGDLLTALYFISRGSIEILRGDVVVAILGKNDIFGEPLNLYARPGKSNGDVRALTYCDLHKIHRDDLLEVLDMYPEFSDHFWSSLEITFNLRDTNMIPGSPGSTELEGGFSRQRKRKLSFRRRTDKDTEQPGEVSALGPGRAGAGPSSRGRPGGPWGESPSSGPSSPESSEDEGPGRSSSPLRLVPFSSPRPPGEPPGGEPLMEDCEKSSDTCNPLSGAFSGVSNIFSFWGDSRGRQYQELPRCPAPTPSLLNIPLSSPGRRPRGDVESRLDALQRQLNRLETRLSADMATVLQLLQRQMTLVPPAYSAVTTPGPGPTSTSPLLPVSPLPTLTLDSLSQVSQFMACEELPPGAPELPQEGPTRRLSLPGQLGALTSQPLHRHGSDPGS

Row | Structure (SMILES) | hERG affinity (hERG) | prevalence of major bleeding versus placebo [1] | patients affected by bleeding (major bleeding events) [2] | direct effect on platelet aggregation (platelet aggregation) | risk of a major bleeding event ([3]; one reported study) | risk of a major bleeding event ([3]; second study) | accumulation of macrophages in plaques [4, 5] | atherosclerotic plaque stability and plaque progression [4, 5] | collagen contents in atherosclerotic plaques [4, 5] | expression of matrix metallopeptidase-9 (MMP-9) [4, 5] | lipid deposition in plaques [4, 5] | plasma levels of FXa or thrombin antithrombin ([4]; ApoE−/− mice, administration of rivaroxaban)
1 | COc1ccc(NC(=O)c2ccc(C(=N)N(C)C)cc2)c(C(=O)Nc2ccc(Cl)cn2)c1 [Betrixaban] | low hERG affinity | – | – | – | – | – | – | – | – | – | – | –
2 | COc1ccc(-n2nc(C(N)=O)c3c2C(=O)N(c2ccc(N4CCCCC4=O)cc2)CC3)cc1 [apixaban] | – | no increased prevalence of major bleeding | 1.7% | no direct effect on platelet aggregation | – | – | – | – | – | – | – | –
3 | O=C(NC[C@H]1CN(c2ccc(N3CCOCC3=O)cc2)C(=O)O1)c1ccc(Cl)s1 [rivaroxaban] | – | – | – | no direct effect on platelet aggregation | 4.3% | 1.7% | reduced accumulation | stabilized atherosclerotic plaques and attenuated plaque progression | increased collagen contents | decreased expression | decreased lipid deposition | did not change
